Reference: US10578610B2, “Peptide regulators of mitochondrial fusion and methods of use” (priority 2016, dated 2020)
Like-named read-outs stand apart in the source and are kept apart here. Ends that are not written are not given here.

Legend:
[1] = test system: WT MEFs; assay type: cell-based, murine; conditions: for mitochondrial aspect ratio (effect of TAT fusion construct): WT MEFs, varying concentrations / time course; for EC50: mitochondrial aspect ratio dose response; for EC50 / half-time for mitochondrial shape change: MEFs; for half-time for mitochondrial shape change: time course
Description: MEFs or neurons were grown on chamber slides and infected with recombinant adenoviri for 48-72 hours unless otherwise indicated. MEFs were stained with MitoTracker Green (200 nM, Invitrogen M7514) and Blue Hoechst (10 mg/ml, Invitrogen H3570), with or without tetramethylrhodamine ethyl ester (TMRE; 200 nM, Invitrogen T-669). Neuronal mitochondria were labeled with adenoviral-expressed mitoGFP plus TMRE, or with adeno-mitoDsRed for time-lapse studies. Cover slips were loaded onto a chamber (Warner instrument, RC-40LP) in modified Krebs-Henseleit buffer (138 mM NaCl, 3.7 mM KCl, 1.2 mM KH2PO4, 15 mM Glucose, 20 mM HEPES and 1 mM CaCl2) at room temperature and visualized on a Nikon Ti Confocal microscope equipped with a 60×1.3 NA oil immersion objective. For mitophagy studies MEFs were stained with MitoTracker Green and infected with adeno-mcherry Parkin or stained with LysoTracker Deep Red (50 nM, Invitrogen L-7528); carbonylcyanide p-trifluoromethoxyphenylhydrazone (FCCP, 10 μM for 1 hour) was applied as a positive control. Mitochondrial fusion was measured at 2 and 6 hours after PEG-mediated cell fusion of MEFs treated 48 hours previously with adeno-mitoGFP or adeno-mitoDsRed (Chen et al., 2005, J Biol Chem, 280:26185-26192). Laser confocal fluorescence was excited with 561 nm (MitoTracker Green, GFP, FITC), 637 nm (TMRE, LysoTracker Red, mcherry-Parkin, MitoTracker Orange) or 408 nm (Blue Hoechst) laser diodes. Image analysis—Mitochondrial aspect ratio was calculated using automated edge detection and Image J software (Song et al., 2015, Cell Metab, 21:273-285). Mitochondrial depolarization was calculated as % of green mitochondria visualized on MitoTracker Green and TMRE merged images, expressed as green/(green+yellow mitochondria)×100. Parkin aggregation was calculated as % of cells with mitochondrial clumping of mcherry-Parkin (Song et al., 2015, Cell Metab, 21:273-285). Lysosomal engulfment of mitochondria was identified by colocalization of LysoTracker Red and MitoTracker Green (Song et al., 2015, Cell Metab, 21:273-285).
TAT47-57 is a well-characterized “carrier” peptide able to promote active cellular peptide uptake. Specifically, a linear peptide was constructed in which the hMfn2 modulatory peptide was linked by a peptide bond at its C-terminus to a Gly-Gly dipeptide linker whose C-terminus was linked by a peptide bond to the TAT47-57 peptide having the sequence YGRKKRRQRRR (SEQ ID NO:25). The resultant linear fusion-promoting peptide conjugate comprises the sequence […] (SEQ ID NO:23). The fusion-inhibiting linear peptide has the sequence […] (SEQ ID NO:24). Except for dose-response studies, stock concentrations of TAT-minipeptides in sterile water were applied to cultured MEFs at a dilution factor of 1:2000 to achieve final concentrations of 1 or 5 μM.
The functional consequences of the Mfn2 HR1-derived peptides were defined after synthesizing them as C-terminal TAT47-57 conjugates to promote active cellular uptake. Mitochondrial fusion can be detected by mixing of organellar contents (Chen et al., 2005, J Biol Chem, 280:26185-26192). […] (FIG. 8A, scale bar is 20 microns). Mitochondrial aspect ratio changed in parallel with mitochondrial mixing (FIG. 8B).
Experiments were performed with these shortened variants fused to a carrier peptide via a linker according to the methods described in Example 5 above. Wildtype MEFs were treated with varying concentrations of peptide fusion constructs described in Table 4 and mitochondrial aspect ratios determined. A dose response curve for TetherX-N and -C variants are shown in FIG. 17A (squares are data for TetherX-N and circles are for TetherX-C). The dose response curve for GoFuse-N and -C variants are shown in FIG. 17B (squares are for GoFuse-N and circles are for GoFuse-C).

[2] = biological target: T1, human Mfn2 (Homo sapiens, UniProt O95140); assay: Mfn2 GTPase assay; assay type: biochemical; design: purchased OriGene; conditions: 1 M peptide 15 minutes, then 0.5 mM GTP 1 hour 37° C.; data not shown
T1 sequence (O95140 1-757): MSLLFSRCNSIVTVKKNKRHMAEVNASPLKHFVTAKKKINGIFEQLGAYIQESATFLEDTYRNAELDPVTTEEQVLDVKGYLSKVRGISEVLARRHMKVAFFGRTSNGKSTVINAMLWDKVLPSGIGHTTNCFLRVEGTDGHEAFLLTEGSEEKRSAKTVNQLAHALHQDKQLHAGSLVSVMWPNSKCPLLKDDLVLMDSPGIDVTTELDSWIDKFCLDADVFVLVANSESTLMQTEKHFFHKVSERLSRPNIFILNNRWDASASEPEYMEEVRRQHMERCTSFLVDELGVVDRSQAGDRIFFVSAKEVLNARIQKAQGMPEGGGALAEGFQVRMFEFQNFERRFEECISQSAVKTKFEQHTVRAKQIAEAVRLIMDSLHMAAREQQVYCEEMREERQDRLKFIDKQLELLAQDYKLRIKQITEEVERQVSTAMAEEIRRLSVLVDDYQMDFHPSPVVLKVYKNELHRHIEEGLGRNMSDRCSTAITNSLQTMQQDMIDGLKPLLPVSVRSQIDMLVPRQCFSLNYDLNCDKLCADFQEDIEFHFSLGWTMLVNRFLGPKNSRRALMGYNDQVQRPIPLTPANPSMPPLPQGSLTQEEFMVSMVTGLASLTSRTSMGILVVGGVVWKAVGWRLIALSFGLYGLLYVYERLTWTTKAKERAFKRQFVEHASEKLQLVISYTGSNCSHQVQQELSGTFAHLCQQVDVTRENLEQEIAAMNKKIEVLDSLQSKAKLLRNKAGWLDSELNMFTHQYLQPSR
Description: Minipeptide effects on Mfn2 GTPase activity were evaluated using a modification of a previously described method (Qi X et al., 2013, J Cell Sci 126:789-802). Briefly, recombinant Mfn2 (100 ng, OriGene, Rockville, Md.) was incubated with […] control TAT peptide, TAT-367-384Gly, or TAT-398-418Gly for 15 minutes prior to addition of 0.5 mM GTP for 1 hour at 37° C. GTPase activity relative to no-peptide control was measured using a colorimetric GTPase assay kit (Novus Biologicals, Littleton, Colo.) following the manufacturer's instructions.

Sequence	mitochondrial aspect ratio (effect of TAT fusion construct) [1]	EC50 ([1]; read-out: EC50 for mitochondrial shortening (suppressed fusion)) [nM]	half-time for mitochondrial shape change [1]	Mfn2 GTPase activity [2]	EC50 ([1]; read-out: EC50 for mitochondrial elongation (enhanced fusion)) [nM]
QDRLKFIDKQGELLAQDYKLRGGYGRKKRRQRRR [TAT-398-418Gly]	decreased mitochondrial aspect ratio	250 ± 90	approximately 2 hours	without altering Mfn2 GTPase activity	–
QIAEAVRGIMDSLHMAARGGYGRKKRRQRRR [TAT-367-384Gly]	increased the mitochondrial aspect ratio	–	approximately 2 hours	without altering Mfn2 GTPase activity	280 ± 90
